Measurements published in patent publication US8586719B2, “Triterpenes for modulating gene expression and cell membrane, and as antiprotozoal agents” (Pacific Arrow Limited, priority 2005, dated 2013).
In brackets after ≈: the same amount, converted by molar mass.

Tests used:
(bladder) TB9 cells = assay: Anti-cancer activity (MTT assay), bladder TB9 cells; format: cell-based; conditions: Homo sapiens
Description: (Our purification methods and biological assays including the MTT assay in International Application No. PCT/US05/31900, filed Sep. 7, 2005, U.S. Ser. No. 11/289,142, filed Nov. 28, 2005, and U.S. Ser. No. 11/131,551, filed May 17, 2005, and PCT/US2008/002086, 1188-ALA-PCT, filed Feb. 15, 2008, the contents of which are incorporated herein by reference)
Experiment details of herb extraction, analysis of extract components by HPLC, determination of the cell-growth activity effected by Xanifolia Y with cells derived from different human organs using MTT Assay, purification of the bioactive components from plant extract, fractionation of plant extracts with FPLC, isolation of component Ys with preparative HPLC, determination of the chemical structure, cell experiments and animal studying are disclosed in PCT/US05/31900, U.S. Ser. No. 11/289,142, U.S. Serial 10/906,303, U.S. Ser. No. 11/131,551 and U.S. Ser. Nos. 11/683,198, filed on Mar. 7, 2007, PCT/US2007/077273, filed Aug. 30, 2007, U.S. Ser. No. 60/890,380, filed on Feb. 16, 2007, U.S. Nos. 60/947,705, filed on Jul. 3, 2007, PCT/US2008/002086, 1188-ALA-PCT, filed Feb. 15, 2008, the contents of which are incorporated herein by reference. Experiments 1-23 of PCT/US2008/002086, 1188-ALA-PCT, filed Feb. 15, 2008 are incorporated herein by reference.

tumor bearing mice = assay: Animal studies in tumor bearing mice; format: in vivo
Description: (Reference Experiments 7, 8, 9 in U.S. Ser. Nos. 11/683,198, filed on Mar. 7, 2007,). The animals died sooner if the treatment of Xanifolia-Y was delayed (comparing results of treatments started from 1, 4 or 10 days after tumor inoculation). […] Ovarian carcinoma cells express high levels of adhesion molecules. Adhesion proteins are present in both cancer cells and mesothelial cells. While the lost of adhesion blocks of the protein accessibility due to a result of modulating by Xanifolia-Y, In an embodiment, the interaction of Xanifolia-Y with membrane alter the adhesion protein's binding site(s).

[1] = system: insulin-like growth factor binding protein 4 (IGFBP4); assay: Microarray gene expression in ES2 cells: IGFBP4; format: cell-based, human; conditions: probe set 201508_at
Description: (§1) The composition comprises bioactive compounds from natural plants or synthesis. The majority of the plants are from the Sapindaceae family, which has 140-150 genera with 1400-2000 species. The program is based on our purification methods and biological assays including the MTT assay See International Application No. PCT/US05/31900, filed Sep. 7, 2005, U.S. Ser. No. 11/289,142, filed Nov. 28, 2005, and U.S. Ser. No. 11/131,551, filed May 17, 2005, and PCT/US2008/002086, 1188-ALA-PCT, filed Feb. 15, 2008, the contents of which are incorporated herein by reference. The details of Analysis of gene expression of ES2 cells after Y-treatment by Microarray, Data Analysis Methods and Western blot in PCT/US2008/002086, 1188-ALA-PCT, filed Feb. 15, 2008, the contents of which are incorporated herein by reference

[2] = system: RAB3B, member RAS oncogene family; assay: Microarray gene expression in ES2 cells: RAB3B; format: cell-based, human
Description: as §1

angiopoietin 2 = assay: Microarray gene expression in ES2 cells: angiopoietin 2; format: cell-based, human; conditions: micro array
Description: as §1
(§2) Angiogenesis is a process involving the growth of new blood vessels. It is a normal process in growth and development. However, this is also a fundamental step in the transition of tumors from a dormant state to a malignant state. The angiopoietins are protein growth factors that modulate angiogenesis. […]

angiopoietin-like 4 = assay: Microarray gene expression in ES2 cells: angiopoietin-like 4; format: cell-based, human; conditions: micro array
Description: as §1, §2

ES2 cells = assay: Microarray experiments: lists of modulated genes; format: cell-based, human
Description: as §1

[3] = system: LIF (Leukemia inhibitory factor); assay: Gene expression by Real-time PCR: LIF; format: cell-based; conditions: DMSO control = 100
Description: (§3) Determination of gene expression by Real-time PCR method (Brilliant QPCR, Agilent Technologies): The real-time polymerase chain reactions further confirm the results obtained from micro array analysis. The Real-time PCR results (shown below) confirmed that Compound Y3 and YM increase the expression of the genes: ANGPT2, DDIT3, LIF and NFKB1Z

[4] = system: NFKB1Z (nuclear factor of kappa light polypeptide gene enhancer in B-cells inhibitor, zeta); assay: Gene expression by Real-time PCR: NFKB1Z; format: cell-based; conditions: DMSO control = 100
Description: as §3

TNC (Tenascin C) = assay: Gene expression by Real-time PCR: TNC; format: cell-based; conditions: control = 100
Description: as §3

[5] = system: COL1A1 (collagen type 1 alpha 1); assay: Gene expression by Real-time PCR: COL1A1; format: cell-based; conditions: control = 100
LAMA4 (laminin alpha 4) = assay: Gene expression by Real-time PCR: LAMA4; format: cell-based; conditions: control = 100
Description: as §3

SMILES: C/C=C(/C)C(=O)O[C@H]1[C@H](OC(=O)/C(C)=C\C)[C@@]2(CO)C(CC1(C)C)C1=CCC3[C@@]4(C)CC[C@H](O[C@@H]5OC(C(=O)O)[C@@H](O)[C@@H](O[C@@H]6O[C@@H](CO)[C@@H](O)C6O)C5O[C@@H]5OC(CO)[C@H](O)[C@@H](O)C5O)C(C)(C)C4CC[C@@]3(C)[C@]1(C)[C@@H](O)[C@H]2O (stereo partly drawn) [Y, 3-O-[β-D-galactopyranosyl(1→2)]-α-L-arabinofuranosy (1→3)-β-D-glucuronopyranosyl-21,22-O-diangeloyl-3β, 15α, 16α, 21β, 22α, 28-hexahydroxyolean-12-ene]
- IC50 ((bladder) TB9 cells): 5 mg/L (≈ 4.38 µM)
- life span of tumor bearing mice (tumor bearing mice; Experiments 7, 8, 9 of U.S. Ser. No. 11/683,198): extended the life span
- migration or metastasis of the inoculated cancer cells (tumor bearing mice; treatment started 1, 4 or 10 days after tumor inoculation): inhibits migration or metastasis
- IGFBP4 expression, treated/D (DMSO control) [1]: −1.7
- RAB3B expression, treated/D (DMSO control) ([2]; ID 205924_at): −1.7
- RAB3B expression, treated/D (DMSO control) ([2]; ID 205925_s_at): −1.2
- RAB3B expression, treated/D (DMSO control) ([2]; ID 227123_at): −1.6
- RAB3B expression, treated/D (DMSO control) ([2]; ID 242629_at): −3.5
- gene expression of angiopoietin 2 (angiopoietin 2): promote
- gene expression of angiopoietin-like 4 (angiopoietin-like 4): inhibit
- genes expression of the adhesion-related genes listed in b182 (FN1, ITGAV, LAMA4 ...) (ES2 cells): inhibited
- gene expression of the genes listed in b176 (ES2 cells; Microarray): modulates
- gene expression of the genes listed in b178 (ES2 cells; Microarray): inhibiting
- gene expression of the genes listed in b180 (ES2 cells; Microarray): stimulates
- LIF expression, % of control [3]: 163 % of control
- NFKB1Z expression, % of control [4]: 142.9 % of control
- TNC expression, % of control (TNC (Tenascin C)): 41.1 % of control
- COL1A1 expression, % of control [5]: 49.9 % of control
- LAMA4 expression, % of control (LAMA4 (laminin alpha 4)): 53.6 % of control
